Assay [1] has as its target T1, ENPP-1 ECD (Homo sapiens (Human), UniProt P22413). Description: Assay 1: inhibition of ENPP1 hydrolysis of 2′,3′-cGAMP (AMP-Glo, […] enzyme).
Description: Assay 1: Test compounds were plated in a 3× dilution scheme in a 384 well plate. […] AMP Detection solution (100 μL) was added to each well, the plate centrifuged and incubated for 60 min.
Assay [2] addresses T1, ENPP-1 ECD. The experiment in a line: Assay 2: inhibition of ENPP1 hydrolysis of 2′,3′-cGAMP (AMP-Glo, […] enzyme). The settings on record: inhibition of ENPP1 hydrolysis of 2′,3′-cGAMP, no unit in Table 18 (Table 17 legend for this assay uses nM).
Description: Assay 2: Compared to the conditions in Assay 1, this assay has a larger dynamic range and ensures the system is under steady-state conditions by reducing the enzyme concentration in the assay.
Test compounds were plated in a 3× dilution scheme in a 384 well plate. […] AMP Detection solution (10 μL) was added to each well, the plate centrifuged and incubated for 60 min.
Setting [3] is: Assay 1 (IC50), inhibition of ENPP1 hydrolysis of 2′,3′-cGAMP, no unit in Table 18 (Table 17 legend for this assay uses nM).
[4] abbreviates: read-out: Assay 1 (IC50), ENPP1 hydrolysis of 2′,3′-cGAMP, AMP-Glo.
Where [5] appears, read: Assay 1 (IC50), ENPP1 hydrolysis of 2′,3′-cGAMP, AMP-Glo.

The record followed here is US11780849B2, “Imino sulfanone inhibitors of ENPP1” (Volastra Therapeutics, Inc., priority 2020, dated 2023).

Where two headings read alike, the source gives them in different places.

By IC50 is commonly meant the concentration that inhibits the measured activity by half. As usually defined, the Ki is a dissociation constant, usually derived from enzyme kinetics or from competition with a known ligand.

T1 sequence (P22413 98-925): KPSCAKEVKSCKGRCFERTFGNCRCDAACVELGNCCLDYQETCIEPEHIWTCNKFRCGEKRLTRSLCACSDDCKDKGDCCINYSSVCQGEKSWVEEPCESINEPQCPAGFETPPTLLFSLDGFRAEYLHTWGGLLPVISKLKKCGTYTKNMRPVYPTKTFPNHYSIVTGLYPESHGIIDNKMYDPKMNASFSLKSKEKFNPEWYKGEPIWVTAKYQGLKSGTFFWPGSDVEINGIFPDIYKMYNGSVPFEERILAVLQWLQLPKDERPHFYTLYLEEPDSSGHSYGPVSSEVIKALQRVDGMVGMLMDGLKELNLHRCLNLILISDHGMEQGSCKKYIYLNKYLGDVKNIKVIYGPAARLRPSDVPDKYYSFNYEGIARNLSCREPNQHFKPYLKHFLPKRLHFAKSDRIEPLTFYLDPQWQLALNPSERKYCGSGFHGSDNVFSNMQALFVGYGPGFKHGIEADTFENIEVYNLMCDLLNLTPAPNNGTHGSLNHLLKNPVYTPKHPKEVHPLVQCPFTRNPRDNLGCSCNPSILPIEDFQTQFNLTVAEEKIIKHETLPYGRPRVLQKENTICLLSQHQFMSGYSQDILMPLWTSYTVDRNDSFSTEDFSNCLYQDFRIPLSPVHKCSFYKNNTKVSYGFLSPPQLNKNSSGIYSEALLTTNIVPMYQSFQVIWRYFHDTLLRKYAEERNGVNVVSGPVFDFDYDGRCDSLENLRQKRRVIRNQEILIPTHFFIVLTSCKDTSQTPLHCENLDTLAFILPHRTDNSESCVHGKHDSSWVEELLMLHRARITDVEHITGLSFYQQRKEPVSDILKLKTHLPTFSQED

For `COc1ccc2c(C(=O)N3CCS(=N)(=O)CC3)ccnc2c1` [Compound 6, 1-imino-4-(7-methoxyquinoline-4-carbonyl)-1λ^6-thiomorpholin-1-one], the IC50 against ENPP-1 ECD [1] (setting [3]) is over 30000 nM; at ENPP-1 ECD [1] (setting [4]), over 1000 nM. Regarding `COc1ccc2c(CC(=O)N3CCS(=N)(=O)CC3)ccnc2c1` [Compound 26, 1-imino-4-[2-(7-methoxyquinolin-4-yl)acetyl]-1λ^6-thiomorpholin-1-one], the IC50 against ENPP-1 ECD [1] (setting [3]) is 8800 nM; at ENPP-1 ECD [1] (setting [4]) it was over 1000 nM. For `COc1ccc2ncc(C#N)c(Oc3ccc(S(C)(=N)=O)cc3)c2c1` (centres unmarked) [Compound 47, 6-methoxy-4-(4-(S-methylsulfonimidoyl)phenoxy)quinoline-3-carbonitrile], the IC50 is 10 to 1000 nM on ENPP-1 ECD [1] (setting [5]) and 180 nM against ENPP-1 ECD [1] (setting [3]). In the case of `Cc1ccc2ncc(C#N)c(Oc3ccc(S(C)(=N)=O)cc3)c2c1` (centres unmarked) [Compound 50, 6-methyl-4-(4-(S-methylsulfonimidoyl)phenoxy)quinoline-3-carbonitrile], the IC50 against ENPP-1 ECD [1] (setting [3]) was 2600 nM; on ENPP-1 ECD [1] (setting [4]), over 1000 nM. Consider `COc1cccc2c(Oc3ccc(S(C)(=N)=O)cc3)c(C#N)cnc12` (centres unmarked) [Compound 58, 8-methoxy-4-(4-(S-methylsulfonimidoyl)phenoxy)quinoline-3-carbonitrile], for which the half-inhibitory concentration (IC50) on ENPP-1 ECD [1] (setting [5]) is 10 to 1000 nM; at ENPP-1 ECD [1] (setting [3]), 51 nM. For `COc1cnc2c(Oc3ccc(S(C)(=N)=O)cc3)ccnc2c1` (centres unmarked) [Compound 76, imino(4-((7-methoxy-1,5-naphthyridin-4-yl)oxy)phenyl)(methyl)-λ^6-sulfanone], the IC50 is 23000 nM on ENPP-1 ECD [1] (setting [3]) and over 1000 nM at ENPP-1 ECD [1] (setting [4]). In the case of `COc1cc2nccc(Oc3ccc(S(C)(=N)=O)cc3)c2cn1` (centres unmarked) [Compound 77, imino(4-((7-methoxy-1,6-naphthyridin-4-yl)oxy)phenyl)(methyl)-λ^6-sulfanone], the IC50 against ENPP-1 ECD [1] (setting [5]) was 10 to 1000 nM; against ENPP-1 ECD [1] (setting [3]), 57 nM.

Turning to `COc1ccc2c(-c3ccc(CS(C)(=N)=O)cc3)ccnc2c1` (centres unmarked) [Compound 88, imino(4-(7-methoxyquinolin-4-yl)benzyl)(methyl)-λ^6-sulfanone], the IC50 on ENPP-1 ECD [1] (setting [5]) was 10 to 1000 nM; on ENPP-1 ECD [1] (setting [3]) it was 920 nM. Regarding `COc1ccc2c(Oc3ccc(S(C)(=N)=O)cc3)ccnc2c1F` (centres unmarked) [Compound 128, {4-[(8-fluoro-7-methoxyquinolin-4-yl)oxy]phenyl}(imino)methyl-λ^6-sulfanone], the IC50 is 10 to 1000 nM on ENPP-1 ECD [1] (setting [5]) and 310 nM at ENPP-1 ECD [1] (setting [3]). Take `COc1ccc2nccc(Oc3ccc(S(C)(=N)=O)cc3)c2n1` (centres unmarked) [Compound 130, imino({4-[(6-methoxy-1,5-naphthyridin-4-yl)oxy]phenyl})methyl-λ^6-sulfanone]: the IC50 against ENPP-1 ECD [1] (setting [3]) turned out to be 8100 nM. Regarding `COc1cccc2c(N3CCC(O)(C[S@](C)(=N)=O)CC3)ncnc12` [Compound 185b], the Ki on ENPP-1 ECD [2] (read-out: Assay 2 (KI)) turned out to be 2.8 nM. Regarding `COc1cccc2c(N3CCC(C[S@@](=N)(=O)C4CC4)CC3)c(C#N)cnc12` [Compound 189a], the Ki on ENPP-1 ECD [2] (read-out: Assay 2 (KI)) was determined as 8.8 nM.

Take `COc1cc2nccc(NCc3cccc(S(C)(=N)=O)c3)c2cc1F` (centres unmarked) [Compound 192, (3-{[(6-fluoro-7-methoxyquinolin-4-yl)amino]methyl}phenyl)(imino)methyl-λ^6-sulfanone]: the Ki at ENPP-1 ECD [2] (read-out: Assay 2 (KI)) is 0.58 nM. On the same count and under the same terms, in the case of `COc1cccc2c(N3CCC(O)(C[S@@](=N)(=O)C4CC4)CC3)ncnc12` [Compound 193a] it was 54 nM.

`COc1cccc2c(N3CCC(O)(CS(C)(=N)=O)C4(CC4)C3)ncnc12` (centres unmarked) [Compound 194, {[8-hydroxy-5-(8-methoxyquinazolin-4-yl)-5-azaspiro[2.5]octan-8-yl]methyl}(imino)methyl-λ^6-sulfanone] displayed a Ki at ENPP-1 ECD [2] (Assay 2 (KI)) of 40 nM.

Molecule `CCS(=N)(=O)CC1(O)CCN(c2ncnc3c(OC)cccc23)CC1` (centres unmarked) [Compound 195, ethyl({[4-hydroxy-1-(8-methoxyquinazolin-4-yl)piperidin-4-yl]methyl})imino-λ^6-sulfanone] returned a Ki at ENPP-1 ECD [2] (Assay 2 (KI)) of 0.2 nM. Consider `CC[S@@](=N)(=O)CC1(O)CCN(c2ncnc3c(OC)cccc23)CC1` [Compound 195a], for which, at ENPP-1 ECD [2] (read-out: Assay 2 (KI)), the Ki came out at 0.052 nM. The same measure, in the same setting: the result for `CC[S@](=N)(=O)CC1(O)CCN(c2ncnc3c(OC)cccc23)CC1` [Compound 195b] reads 7.7 nM. As to `COc1cccc2c(N3CCC(O)(C[S@](C)(=N)=O)CC3)c(C#N)cnc12` [Compound 198b], the Ki on ENPP-1 ECD [2] (read-out: Assay 2 (KI)) amounted to 1.2 nM. On to `COc1cccc2c(N3CCC(CS(C)(=N)=O)CC3)c(F)cnc12` (centres unmarked) [Compound 202, {[1-(3-fluoro-8-methoxyquinolin-4-yl)piperidin-4-yl]methyl}(imino)methyl-λ^6-sulfanone], for which, on ENPP-1 ECD [2] (Assay 2 (KI)), the Ki came out at 370 nM.

In turn, `COc1ccc(F)c2c(N3CCC(CS(C)(=N)=O)CC3)c(C#N)cnc12` (centres unmarked) [Compound 203, 5-fluoro-4-(4-{[imino(methyl)oxo-λ^6-sulfanyl]methyl}piperidin-1-yl)-8-methoxyquinoline-3-carbonitrile] registered a Ki on ENPP-1 ECD [2] (Assay 2 (KI)) of 1.7 nM. On to `COc1cc2nccc(-c3cccc(CCS(C)(=N)=O)c3)c2cc1OC` (centres unmarked) [Compound 204, {2-[3-(6,7-dimethoxyquinolin-4-yl)phenyl]ethyl}(imino)methyl-λ^6-sulfanone], for which the affinity on ENPP-1 ECD [2] (Assay 2 (KI)), expressed as Ki, was 28 nM.

`COc1cc2nccc(N3CCC4(CC3)CCN([S@](C)(=N)=O)C4)c2cc1F` [Compound 205a]: the Ki at ENPP-1 ECD [2] (read-out: Assay 2 (KI)) turned out to be 5 nM. `COc1cc2ncnc(N3CC4(CCN(S(C)(=N)=O)CC4)C3)c2cc1OC` (centres unmarked) [Compound 206, [2-(6,7-dimethoxyquinazolin-4-yl)-2,7-diazaspiro[3.5]nonan-7-yl](imino)methyl-λ^6-sulfanone]: affinity on ENPP-1 ECD [2] (Assay 2 (KI)) was put at a Ki of 17 nM. On the same count and under the same terms, in the case of `COc1cc2ncnc(N3CCC4(CC3)CCN(S(C)(=N)=O)CC4)c2cc1OC` (centres unmarked) [Compound 209, [9-(6,7-dimethoxyquinazolin-4-yl)-3,9-diazaspiro[5.5]undecan-3-yl](imino)methyl-λ^6-sulfanone] it was 17 nM. Take `COc1cc2nncc(N3CCC4(CC3)CCN([S@@](C)(=N)=O)C4)c2cc1OC` [Compound 211b]: the Ki on ENPP-1 ECD [2] (read-out: Assay 2 (KI)) is 0.5 nM.

Take `COc1cccc2c(N3CCC4(CC3)CCN4S(C)(=N)=O)ncnc12` (centres unmarked) [Compound 214, imino[7-(8-methoxyquinazolin-4-yl)-1,7-diazaspiro[3.5]nonan-1-yl]methyl-λ^6-sulfanone]: the Ki at ENPP-1 ECD [2] (Assay 2 (KI)) is 110 nM. As for `COc1cccc2c(N3CCC4(CC3)CCN(S(C)(=N)=O)C4)ncnc12` (centres unmarked) [Compound 215, imino[8-(8-methoxyquinazolin-4-yl)-2,8-diazaspiro[4.5]decan-2-yl]methyl-λ^6-sulfanone], the affinity on ENPP-1 ECD [2] (Assay 2 (KI)), expressed as Ki, was 3.8 nM. Molecule `COc1cc2ncnc(N3CCC4(CCN(S(C)(=N)=O)C4)C3)c2cc1OC` (centres unmarked) [Compound 216, [7-(6,7-dimethoxyquinazolin-4-yl)-2,7-diazaspiro[4.4]nonan-2-yl](imino)methyl-λ^6-sulfanone] had an inhibition constant Ki at ENPP-1 ECD [2] (Assay 2 (KI)) of 5.5 nM.

`COc1cc2nccc(N3CCC4(CC3)CCN([S@](=N)(=O)C3CC3)C4)c2cc1F` [Compound 218b]: the inhibitory constant (Ki) at ENPP-1 ECD [2] (read-out: Assay 2 (KI)) amounted to 1.5 nM. `COc1cc2nncc(N3CCC4(CC3)CCN(S(C)(=N)=O)C4)c2cc1Cl` (centres unmarked) [Compound 219, [8-(6-chloro-7-methoxycinnolin-4-yl)-2,8-diazaspiro[4.5]decan-2-yl](imino)methyl-λ^6-sulfanone]: affinity on ENPP-1 ECD [2] (Assay 2 (KI)) was put at a Ki of 0.091 nM.

In the case of `COc1cc2nncc(N3CCC4(CC3)CCN([S@@](C)(=N)=O)C4)c2cc1Cl` [Compound 219b], the Ki on ENPP-1 ECD [2] (read-out: Assay 2 (KI)) turned out to be 2 nM. Take `COc1cccc2c(N3CC4(CCN([S@](C)(=N)=O)C4)C3)c(C#N)cnc12` [Compound 222b]: at ENPP-1 ECD [2] (read-out: Assay 2 (KI)), the Ki is 1.3 nM. As for `COc1cc2nccc(OC[C@@H]3CCN([S@@](C)(=N)=O)C3)c2cc1F` [Compound 229a], the Ki at ENPP-1 ECD [2] (read-out: Assay 2 (KI)) worked out at 39 nM. Consider `COc1cc2nccc(OC[C@H]3CCN([S@](C)(=N)=O)C3)c2cc1F` [Compound 230a], for which the Ki on ENPP-1 ECD [2] (read-out: Assay 2 (KI)) was found to be 11 nM.

In turn, `COc1ccc2c(COc3cccc(S(C)(=N)=O)c3)ccnc2c1` (centres unmarked) [Compound 232, imino({3-[(7-methoxyquinolin-4-yl)methoxy]phenyl})methyl-λ^6-sulfanone] came in with an inhibitory constant (Ki) on ENPP-1 ECD [2] (Assay 2 (KI)) of 3.3 nM. Regarding `COc1ccc2c(-n3cc4c(n3)CCN(S(C)(=N)=O)C4)ccnc2c1` (centres unmarked) [Compound 233, imino[2-(7-methoxyquinolin-4-yl)-2H,4H,5H,6H,7H-pyrazolo[4,3-c]pyridin-5-yl]methyl-λ^6-sulfanone], the inhibition constant (Ki) at ENPP-1 ECD [2] (Assay 2 (KI)) was over 500 nM. At ENPP-1 ECD [2] (Assay 2 (KI)), `COc1ccc2c(-n3cc(CCS(C)(=N)=O)cn3)ccnc2c1` (centres unmarked) [Compound 234, imino({2-[1-(7-methoxyquinolin-4-yl)-1H-pyrazol-4-yl]ethyl})methyl-λ^6-sulfanone] came in with a Ki of over 500 nM. In the case of `COc1ccc2c(OC3CCN(S(C)(=N)=O)CC3)ccnc2c1` (centres unmarked) [Compound 235, imino({4-[(7-methoxyquinolin-4-yl)oxy]piperidin-1-yl})methyl-λ^6-sulfanone], on ENPP-1 ECD [2] (Assay 2 (KI)), the affinity corresponds to a Ki of 8 nM. In the case of `COc1cc2ncnc(N3CC4(CC(C[S@@](C)(=N)=O)C4)C3)c2cc1OC` [Compound 237a], on ENPP-1 ECD [2] (read-out: Assay 2 (KI)), the Ki worked out at 2.4 nM. For the molecule `COc1cccc2c(N3CC[C@H](C[S@](C)(=N)=O)C3)ncnc12` [Compound 238b], the Ki at ENPP-1 ECD [2] (read-out: Assay 2 (KI)) amounted to 13 nM. Take `COc1cccc2c(N3CC[C@@H](C[S@@](C)(=N)=O)C3)ncnc12` [Compound 239b]: the Ki on ENPP-1 ECD [2] (read-out: Assay 2 (KI)) is 83 nM.

In the case of `COc1ccc2c(O[C@H]3CC[C@H](S(C)(=N)=O)CC3)ccnc2c1` (some centres unmarked) [Compound 243, imino(methyl)[(1r,4r)-4-[(7-methoxyquinolin-4-yl)oxy]cyclohexyl]-λ^6-sulfanone], the Ki on ENPP-1 ECD [2] (Assay 2 (KI)) was 4.3 nM. On to `COc1cccc2c(N3CC=C(CS(C)(=N)=O)CC3)ncnc12` (centres unmarked) [Compound 246, imino({[1-(8-methoxyquinazolin-4-yl)-1,2,3,6-tetrahydropyridin-4-yl]methyl})methyl-λ^6-sulfanone], for which the affinity at ENPP-1 ECD [2] (Assay 2 (KI)) corresponds to a Ki of 19 nM.
